The values that follow come from patent US12606520B2, “Calpain-2 inhibitor compounds and methods of treatment” (WESTERN UNIVERSITY OF HEALTH SCIENCES, priority 2020, dated 2026).

Structures are written as SMILES.

Test [1] concerns the target T1, calpain-2 (Mus musculus, UniProt O08529).
T1 sequence (O08529 1-700): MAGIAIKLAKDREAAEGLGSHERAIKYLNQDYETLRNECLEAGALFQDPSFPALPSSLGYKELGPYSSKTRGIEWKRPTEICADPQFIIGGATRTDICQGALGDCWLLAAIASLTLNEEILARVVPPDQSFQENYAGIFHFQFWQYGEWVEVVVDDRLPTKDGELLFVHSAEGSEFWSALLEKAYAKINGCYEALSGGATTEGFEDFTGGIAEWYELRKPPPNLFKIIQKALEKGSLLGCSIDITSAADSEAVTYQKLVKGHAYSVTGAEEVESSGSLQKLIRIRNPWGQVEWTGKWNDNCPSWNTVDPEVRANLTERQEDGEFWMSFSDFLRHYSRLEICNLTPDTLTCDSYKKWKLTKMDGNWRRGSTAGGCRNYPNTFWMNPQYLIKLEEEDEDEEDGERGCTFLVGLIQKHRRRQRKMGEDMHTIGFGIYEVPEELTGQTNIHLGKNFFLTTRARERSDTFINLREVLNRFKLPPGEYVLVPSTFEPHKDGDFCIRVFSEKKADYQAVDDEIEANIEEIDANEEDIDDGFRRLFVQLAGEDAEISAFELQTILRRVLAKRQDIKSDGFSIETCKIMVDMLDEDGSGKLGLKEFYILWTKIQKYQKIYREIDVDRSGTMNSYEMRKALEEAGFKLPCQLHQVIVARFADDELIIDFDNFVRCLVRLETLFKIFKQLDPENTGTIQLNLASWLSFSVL
T1 sequence (O88456 1-268 partner): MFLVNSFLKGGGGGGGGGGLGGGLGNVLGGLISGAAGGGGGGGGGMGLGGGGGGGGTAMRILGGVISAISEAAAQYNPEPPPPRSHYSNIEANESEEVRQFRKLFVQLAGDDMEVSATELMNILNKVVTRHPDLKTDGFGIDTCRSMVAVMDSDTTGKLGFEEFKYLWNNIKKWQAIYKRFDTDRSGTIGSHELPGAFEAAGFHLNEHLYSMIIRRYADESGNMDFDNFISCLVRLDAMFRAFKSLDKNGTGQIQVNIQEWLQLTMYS
In words: Calpain-2 activity after TBI in mice (i.p. dosing). It counts as in vivo. Set-up: from tissue; host or cells: cerebellar P2 fractions / brain of wild-type mice after TBI. The protocol:
Calpain activity in cerebellar P2 fractions was measured 24 h after traumatic brain injury (TBI) in adult wild-type mice and the assay results for calpain-1 and calpain-2 are shown in FIG. 2. 0.1 or 1 mg/kg of NA112 was injected intraperitoneally 1 h after TBI. Each measurement of in vivo selectivity was obtained as follows: • Calpain-1 activity: Calpain activity with 20 μM Ca^2+. Normalized to Vehicle. • Calpain-2 activity: Calpain activity with 5 mM Ca^2+ minus Calpain activity with 20 μM Ca^2+. Results are means S.E.M. of 3 experiments.
Calpain activity in cerebellar P2 fractions was measured 24 h after TBI in adult WT mice, and vehicle or 0.1 or 1 mg/kg of NA112 (12) dissolved in DMSO or liposomal formulation (lipo) was injected intraperitoneally 1 h after TBI. […]
Vehicle (DMSO or liposomes) or 0.1 or 1 mg/kg of NA112 (12) dissolved in DMSO or liposomal formulation (lipo) was injected intraperitoneally 1 h after TBI in WT mice. Calpain activity was measured 24 h later in cerebellar P2 fractions. Calpain-1 activity was measured in the presence of 20 μM calcium and calpain-2 activity was measured as the difference between calpain activity measured in the presence of 5 mM calcium and that measured in the presence of 20 μM calcium (FIG. 11). In both cases, calpain activity was normalized to the values measured in vehicle-treated mice. […]

The target in test [2] is T2, calpain-1 (Mus musculus, UniProt O35350).
T2 sequence (O35350 1-713): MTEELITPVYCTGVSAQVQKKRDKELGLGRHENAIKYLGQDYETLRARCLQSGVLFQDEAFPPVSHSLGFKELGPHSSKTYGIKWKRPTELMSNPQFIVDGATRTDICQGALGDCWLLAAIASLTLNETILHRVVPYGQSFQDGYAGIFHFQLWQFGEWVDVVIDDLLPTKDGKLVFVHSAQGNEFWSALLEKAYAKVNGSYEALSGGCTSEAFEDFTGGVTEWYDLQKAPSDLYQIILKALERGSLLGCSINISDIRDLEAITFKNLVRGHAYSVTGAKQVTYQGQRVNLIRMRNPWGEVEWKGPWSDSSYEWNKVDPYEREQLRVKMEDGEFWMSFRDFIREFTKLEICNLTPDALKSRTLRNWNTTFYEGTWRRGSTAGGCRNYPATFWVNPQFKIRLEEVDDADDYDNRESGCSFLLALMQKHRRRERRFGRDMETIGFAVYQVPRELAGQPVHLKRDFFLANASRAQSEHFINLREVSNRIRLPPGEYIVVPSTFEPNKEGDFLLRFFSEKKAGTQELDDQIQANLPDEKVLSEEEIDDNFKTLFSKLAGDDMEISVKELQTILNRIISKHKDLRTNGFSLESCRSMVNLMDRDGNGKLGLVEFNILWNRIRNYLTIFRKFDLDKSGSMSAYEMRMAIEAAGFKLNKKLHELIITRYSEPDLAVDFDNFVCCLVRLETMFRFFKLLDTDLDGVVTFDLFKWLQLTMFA
T2 sequence (O88456 1-268 partner): T1 sequence (O88456 1-268 partner)
In words: Calpain-1 activity in brain after TBI in mice. Set-up: from tissue; host or cells: mouse brain after TBI. It is filed as in vivo. The conditions noted are these: 1 mg/kg i.p., 24 h after TBI. How it is done: We also performed the same model of TBI in male and female mice and in male and female rats. In all cases, NA184 was injected i.p. at 1 mg/kg. For the rat experiments, NA184 was injected twice at 1 h and 8 h after TBI. Animals were sacrificed 24 h after TBI and calpain activity was assayed in brain and cell death was analyzed in cortex. […] In addition, there was a highly significant correlation between calpain-2 activity and cell death in rats (FIG. 23). R^2 was 0.61 and p<0.005.

As to `CCC(NC(=O)[C@H](CC(C)C)NC(=O)NCc1ccccc1)C(=O)C(=O)NCc1cc(OC)cc(OC)c1` (mixture of isomers) [NA112, (2S)-2-(3-benzylureido)-N-(1-((3,5-dimethoxybenzyl)amino)-1,2-dioxopentan-3-yl)-4-methylpentanamide], the “Calpain-2 inhibition, DMSO vs liposomes” value in test [1] (0.1 or 1 mg/kg i.p. 1 h after TBI, cerebellar P2 fractions 24 h after TBI) is on record as “same degree of calpain-2 inhibition”.

As to `CCC(NC(=O)[C@H](CC(C)C)NC(=O)NCc1ccccc1)C(=O)C(=O)NCc1cccc(Cl)c1OC` (stereo partly drawn) [NA184, (2S)-2-(3-benzylureido)-N-(1-((3-chloro-2-methoxybenzyl)amino)-1,2-dioxopentan-3-yl)-4-methylpentanamide], the “Calpain-1 inhibition in brain, male and female mice” value in test [2] is given as “not calpain-1”. Also, the “Calpain-2 inhibition in brain, male and female mice” value in test [1] (1 mg/kg i.p., 24 h after TBI) is on record as “significantly inhibited calpain-2”.
